pIC50: −log10 of the molar value. “And” between values parts separate entries of the source, which are not always exact repeats. Identical values can stand only once.
What follows are compounds tested against Nonstructural protein 3 (Zika virus, UniProt A0A024AXB9) (assay: Functional biochemical assay to identify treatments for viral infectious disease that targets Zika NS2B-NS3 protease. Utilizing a direct enzyme activity measurement method, reading the fluorescence intensity is used to characterize the relative potency of inhibitors as IC50.).
Design: species or system PRVABC59

Nonstructural protein 3, sequence (A0A024AXB9 whole entry): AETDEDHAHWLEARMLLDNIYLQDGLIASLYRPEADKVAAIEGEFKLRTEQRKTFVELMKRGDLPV

SMILES | pIC50 | IC50
COc1cc(C#N)cc([C@H](Nc2ccc3c(c2)CNC3)C(=O)NCC(F)F)c1 | 7.38 and 7.51 | 
Cc1cc(OCc2ccccc2)ccc1NS(=O)(=O)c1ccc(Cl)cc1C(=O)O | < 4.00 | 
CC(C)n1cc2c(C(=O)Nc3ccc4c(c3)CNC4)cc(Cl)cc2n1 | 7.34 and 7.47 | 
OC[C@H]1CCN(c2cnc3ccccc3n2)C1 | < 4.00 | 
CN1CCC(c2nc(C(F)(F)F)n3c2CN(c2cccc(C(N)=O)n2)CC3)CC1 | < 4.00 | 
NCc1cccc(NC(=O)[C@H](NC(=O)OCc2ccccc2)C(C2CCC2)C2CCC2)c1 | < 4.00 | 
CCNC(=O)Nc1cc(Cl)cc(C(=O)Nc2cccc(-c3nn[nH]n3)c2)c1 | < 4.00 | 
O=C(N[C@@H](C(=O)NCc1ccccn1)c1ccc(OCc2ccccc2)cc1)OCc1ccccc1 | < 4.00 | 
CCn1c(=O)c(N2CC[C@H](N3CCCS3(=O)=O)C2)nc2ccccc21 | < 4.00 | 
O=C(Nc1ccc2c(c1)CNC2)c1cc(F)cc2[nH]c(-c3ccccc3F)nc12 |  | 23 nM (2×) and 13 nM
CCn1c(=O)c(N2CC[C@@]3(COC(=O)N3)C2)nc2ccccc21 | < 4.00 | 
COC(=O)c1cc(Cl)ccc1NS(=O)(=O)c1ccc(Br)cc1 | < 4.00 | 
COC[C@@H](C)CNC(=O)c1cc(Cl)ccc1NS(=O)(=O)c1ccc(Oc2ccccc2Cl)cc1 | < 4.00 | 
CN(C)Cc1nnc(NC(=O)[C@@H](NC(=O)OCc2ccccc2)c2ccc(OCc3ccccc3)cc2)s1 | < 4.00 | 
c1ccc(COc2cccc3[nH]cc(CN4CCC(c5cscn5)CC4)c23)cc1 | < 4.00 | 
O=C(Nc1ccc2c(c1)CNC2)c1cc(F)cc(-c2cn[nH]c2)c1 | 7.47 and 7.64 | 
Cc1c(C(=O)Nc2nccc3c2CNCC3)cc(C2CC2)n1C | < 4.00 | 
O=C(Nc1cc(Cl)cc(C(=O)Nc2ccc([C@H]3CNCCO3)cc2)c1)OCc1ccccc1 | < 4.00 | 
CN1CCc2ccc(C(=O)N3CCNc4ccccc4C3)cc2C1 | < 4.00 | 
O=C(Nc1ccc2c(c1)CNC2)c1cc(F)cc(-c2cccnc2)c1 | 7.05 and 7.06 | 
CCn1c(=O)c(N2CC[C@@H](CO)C2)nc2ccccc21 | < 4.00 | 
CNC(=O)[C@H](Nc1ccc(-c2nn[nH]n2)cc1)c1cc(Cl)cc(NC(=O)OCc2ccccc2)c1 | < 4.00 | 

SMILES | pIC50 | IC50
O=C(O)CCc1ccc(NC(=O)c2cc(Cl)cc(NC(=O)OCc3ccccc3)c2)cc1 | < 4.00 | 
Cc1c(NC(=O)OCc2ccccc2)cc(C(=O)Nc2cccc(CN)c2)cc1C(F)(F)F | < 4.00 | 
c1ccc(C2CCN(Cc3ccc4nccnc4c3)CC2)nc1 | < 4.00 | 
O=C(Nc1ccc2c(c1)CCCN2)c1cc(Cl)cc2[nH]ncc12 | < 4.00 | 
COc1ncc(C(=O)Nc2cccc(CN)c2)cc1NC(=O)OCc1ccccc1 | < 4.00 | 
CCn1ccc(-c2ccc([C@@H](NC(=O)OCc3ccccc3)C(=O)Nc3cccc(CN)c3)cc2)n1 | < 4.00 | 
CCC(=O)N1CCc2ccc(NS(=O)(=O)c3ccc(Cl)cc3C(=O)O)cc21 | < 4.00 | 
CNC(=O)C(=O)/C=C/c1ccccc1 | < 3.70 | 
Cc1cccnc1COc1ccc(S(=O)(=O)Nc2ccc(Cl)cc2C(=O)O)cc1 | < 4.00 | 
NCc1cccc(NC(=O)c2nc(=O)cc(NC(=O)OCc3ccccc3)[nH]2)c1 | < 4.00 | 
[O-][S@@+](Cc1ncccn1)c1ncccc1Br | < 4.00 | 
NCc1cccc(NC(=O)c2cc(CO)cc(NC(=O)OCc3ccccc3)c2)c1 | < 4.00 | 
O=C(Nc1cc(Cl)cc(C(=O)N[C@H]2CCCC[C@@H]2C(=O)O)c1)OCc1ccccc1 | < 4.00 | 
NCc1ccc(Oc2ccc(S(=O)(=O)Nc3ccc(Cl)cc3C(=O)O)cc2)cc1 | < 4.00 | 
Cc1oc2nc(-c3cc(Cl)cc(NC(=O)OCc4ccccc4)c3)ccc2c1C(=O)O | < 4.00 | 
O=S(=O)(Nc1ccc(Cl)cc1)c1ccc(Oc2ccccc2Cl)cc1 | < 4.00 | 
C=CC[C@H](Nc1cc(CN)ccn1)c1cc(Cl)cc(NC(=O)OCc2ccccc2)c1 | < 4.00 | 
O=c1ccccn1-c1ncc(Br)cn1 | < 4.00 | 
CCn1cc(-c2cnn(-c3ccccc3)c2)nc(N2CC[C@@H](CO)C2)c1=O | < 4.00 | 
CCn1c(=O)c(N2C[C@H]3CN(C)CC[C@H]3C2)nc2ccccc21 | < 4.00 | 
NCc1cccc(NC(=O)c2cc(NC(=O)OCc3ccccc3)cc3c2OC(F)(F)O3)c1 | < 4.00 | 

The next lines start with the values.

pIC50 | IC50 | SMILES
< 4.00 |  | Cc1cc(C(=O)Nc2cccc(CN)c2)c2nc(C)n(C)c2n1
< 4.00 |  | NS(=O)(=O)c1cc(F)c(Cl)cc1N1CCN(c2ccnc(O)c2)CC1
4.66 |  | NCc1cccc(NC(=O)[C@@H]2Cc3ccc(OCc4ccccc4)cc3CN2C(=O)OCc2ccccc2)c1
< 4.00 |  | Cn1nc(C2CC2)c2c(C(=O)Nc3cccc(CN)c3)cc(C3CC3)nc21
< 4.60 |  | O=C1CN(C(=O)Nc2ccc3c(c2)CNC3)[C@H]2CCCC[C@H]2N1
6.89 |  | O=C(NCC(F)F)[C@H](Nc1ccc2c(c1)CNC2)c1cc(Cl)ccc1OC[C@H]1CCCO1
4.03 |  | COc1cc(-c2cc(Cl)cc(NC(=O)OCc3ccccc3)c2)c(OC)cc1CC(=O)O
< 4.00 |  | Cc1ccc(CNC(=O)c2cc(Cl)ccc2NS(=O)(=O)c2ccc(Oc3ccccc3Cl)cc2)s1
< 4.00 |  | CCOCC(=O)N[C@H](C(=O)Nc1cccc(CN)c1)c1ccc(OCc2ccccc2)cc1
< 4.00 |  | NCc1cccc(NC(=O)c2cc(Cl)ccc2NS(=O)(=O)c2ccccc2)c1
4.03 |  | NCc1cccc(S(=O)(=O)Cc2cc(Cl)cc(NC(=O)OCc3ccccc3)c2)c1
< 4.00 |  | Clc1ccc2ncn(Cc3ccc4c(c3)CNC4)c2c1
< 4.00 |  | Cn1cc(-c2cccc([C@H](NC(=O)OCc3ccccc3)C(=O)Nc3cccc(CN)c3)c2)cn1
6.91 |  | O=C(NCCCn1ccnc1)[C@H](Nc1ccc2c(c1)CNC2)c1cc(Cl)cc(C2CC2)c1
< 4.60 |  | O=C(Nc1ccc2c(c1)CNC2)c1ncnc2[nH]ccc12
5.06 |  | O=C(Nc1cc(Cl)cc(C(=O)Nc2ccc(N3CCCNCC3)cc2)c1)OCc1ccccc1
< 4.00 |  | Cc1cc(NC(=O)OCc2ccccc2)cc(C(=O)Nc2cccc(CN)c2)c1C
4.27 |  | NCc1cccc(NC(=O)[C@H]2c3ccc(Br)cc3CCN2C(=O)OCc2ccccc2)c1
4.04 |  | Cc1nc(-c2ccc(Cl)cc2)sc1C(=O)Nc1cccc(CN)c1
4.43 |  | N[C@H]1CCN(c2ccc(NS(=O)(=O)c3ccc(Oc4ccccc4Cl)cc3)cc2)C1

pIC50 | IC50 | SMILES
5.85 |  | CNCc1cc(Cl)cc(C(=O)Nc2cccc(CN)c2)c1
4.58 |  | NS(=O)(=O)c1ccc(C2CCN(Cc3c[nH]c4ccccc34)CC2)cc1
4.71 |  | C[C@@]1(c2cc(Cl)cc(NC(=O)OCc3ccccc3)c2)C[C@H]1c1cccc(CN)c1
< 4.60 |  | O=C1Cc2c(cccc2C(=O)Nc2ccn(C[C@H]3CCOC3)n2)N1
4.91 |  | NCc1cc(-c2ccncc2)cc([C@@H]2C[C@H]2c2cc(Cl)cc(NC(=O)OCc3ccccc3)c2)c1
< 4.60 |  | NCc1cc(CC(=O)O)cc([C@H]2C[C@@H]2c2cc(Cl)cc(NC(=O)OCc3ccccc3)c2)c1
5.92 |  | O=C(Nc1ccc(C2CNC2)cc1)c1cc(Cl)cc2[nH]ncc12
< 4.60 |  | Cc1c(C(=O)Nc2cc(-c3cccnc3)ccn2)cc(C(C)(C)C)n1C
5.22 |  | O=C(Nc1ccc2c(c1)CNC2)c1nccc2[nH]ncc12
4.41 |  | COc1ccc(COc2ccc([C@H](NC(=O)OCc3ccccc3)C(=O)Nc3cccc(CN)c3)cc2)cn1
< 4.60 |  | CC1CCN(CCCCNC(=O)C2CCN(c3ccc(C=O)cc3)CC2)CC1
6.93 |  | Cc1nc2c(C(=O)Nc3ccc4c(c3)CNC4)cc(Cl)cc2[nH]1
< 4.60 |  | Cc1nc(C2CC2)[nH]c1C(=O)Nc1cc(CCCN)ccn1
5.81 |  | O=C(Nc1ccc2c(c1)CNC2)c1cc(Cl)nc2[nH]ncc12
4.10 |  | COc1cc(NC(=O)OCc2ccccc2)cc(C(=O)Nc2cccc(CN)c2)c1
4.36 |  | CSc1ccc([C@H](CC(=O)Nc2cccc(CN)c2)NC(=O)OCc2ccccc2)cc1
4.09 |  | CCCC[C@H](N)C(=O)N[C@H](C(=O)NCc1ccc(C(N)=O)cc1)c1ccc(OCc2ccccc2)cc1
5.24 |  | Cc1[nH]c2ccccc2c1CN1CCC(c2c[nH]c3ncccc23)CC1
4.51 |  | O=C(Nc1cc(Cl)cc(C(=O)Nc2ccc(-n3nn[nH]c3=O)cc2)c1)OCc1ccccc1
6.54 |  | C=CC[C@H]1NCc2cc(NC(=O)c3cc(F)cc4[nH]ncc34)ccc21

pIC50 | IC50 | SMILES
< 4.60 |  | CCOc1cccc(-c2cccc(NC(=O)c3cc(C4CC4)n(C)c3C)n2)c1
4.14 |  | CN1Cc2ccc(CNC(=O)[C@@H](NC(=O)OCc3ccccc3)c3ccc(OCc4ccccc4)cc3)cc2C1
4.62 |  | O=C(Nc1cc(Cl)cc(C(=O)Nc2ccc3c(c2)[C@H]2CC[C@H]3N2)c1)OCc1ccccc1
6.10 |  | CNC(=O)[C@H](Nc1cc(CN)cc(C(=O)O)c1)c1cc(Cl)cc(C2CC2)c1
6.97 |  | Cn1cc2c(C(=O)Nc3ccc4c(c3)CNC4)cc(F)cc2n1
4.36 |  | CS(=O)(=O)c1cc(CN)cc([C@@H]2C[C@H]2c2cc(Cl)cc(NC(=O)OCc3ccccc3)c2)c1
4.46 |  | CC(C)CNC(=O)c1cc(Cl)ccc1NS(=O)(=O)c1ccc(Oc2ccccc2Cl)cc1
4.80 |  | O=C(Nc1ccc2c(c1)CNC2)c1ccc2sncc2c1
< 4.60 |  | Cc1c(C(=O)Nc2cccc(-c3ccccc3)c2)cc(C2CC2)n1C
4.31 |  | O=Cc1ccc(N2CCC(C(=O)N3CCN(c4cccc(O)c4)CC3)CC2)cc1
6.26 |  | O=C(Nc1ccc2c(c1)CNC2)c1cc(Br)cc2c1nc1n2CCCC1
4.57 |  | COc1ccccc1-c1ccc([C@@H](NC(=O)OCc2ccccc2)C(=O)Nc2cccc(CN)c2)cc1
4.49 |  | O=C(Nc1cc(Cl)cc(-c2cc(C(=O)O)n(-c3ccc(F)cc3)n2)c1)OCc1ccccc1
5.24 |  | N[C@H]1CCc2cc(NC(=O)c3cc(Cl)cc(NC(=O)OCc4ccccc4)c3)ccc21
< 4.60 |  | CC(C)(C)OC(=O)N1Cc2ccc(NC(=O)c3ccc4c(Br)csc4c3)cc2C1
4.07 |  | O=C(O)CCCc1cccc(NC(=O)c2cc(Cl)cc(NC(=O)OCc3ccccc3)c2)c1
5.42 |  | O=C(Nc1ccc2c(c1)CN(CC(F)F)C2)c1cc(Cl)cc2[nH]ncc12
6.81 |  | C=CC[C@H]1NCc2cc(NC(=O)c3cc(F)cc4c3CC(=O)N4)ccc21
4.08 |  | NCc1cccc(NC(=O)[C@H](NC(=O)OCc2ccccc2)c2cccc(-c3ccc(S(N)(=O)=O)cc3)c2)c1

Reference: ChEMBL document CHEMBL5604062, “ASAP - ZIKV NS2B-NS3 protease fluorescence dose response” (2024)
